Reference: patent publication US20120003270A1, “6-SUBSTITUTED ISOFLAVONOID COMPOUNDS AND USES THEREOF” (priority 2008, published 2012)

Legend:
VCAM-1 = assay: TNFα-induced VCAM-1 expression in HAECs (ELISA); type: cell-based, human; conditions: TNFα-stimulated HAECs, 405 nm
Protocol: Inhibition of TNFα-stimulated endothelial cell activation was assessed by measuring surface expression of cell adhesion molecules with an ELISA method. Human arterial endothelial cells (HAEC) in growth medium (Cell Applications Inc.) were seeded into 96-well plates at a density of 10,000 cells per well. Plates were incubated overnight at 37° C. in a humidified incubator to allow for cells to become confluent. On the morning of the experiment, TNFα (10 μl, 2 ng/ml) was added to each well, which contained 100 μl of medium. Test compounds were diluted in DMSO-containing medium (2.5% DMSO) to give a concentration of 100 and 300 μM. They were added to wells so that final concentrations were 10 and 30 μM. DMSO-containing medium alone was added to zero concentration control wells. All samples were measured in quadruplicate (4 wells per treatment).
After incubation with a compound of the formula (I), the medium was removed and cells were probed with either non-specific IgG or specific mouse antibodies (VCAM (BD Biosciences −0.1 μg in 100 μL buffered saline with 10% heat-inactivated human serum)).
Adhesion molecule expression was detected by addition of sheep anti-mouse antibody/horseradish peroxidase conjugate. Plates were allowed to stand for 30 minutes—monolayers were then washed, and sheep anti-mouse antibody/horseradish peroxidase conjugate (1:500 in 100 μL HBSS with 10% heat-inactivated human serum and 0.05% Tween 20) was added and left for 30 minutes. After further washing, 150 μL, ABTS substrate (Kirkegaard and Perry Laboratories) was added to each well and allowed to develop for 15 minutes. Optical density was measured at 405 nm with an ELISA reader (Titertek Multiscan, Flow Laboratories).

red blood cells (RBC) = assay: Peroxyl radical (AAPH)-induced red blood cell lysis; type: cell-based; conditions: test compounds at 1 μM; AAPH 150 mM; vehicle 40.0
Protocol: Freshly collected heparinised venous blood (10 ml, on ice) was aliquotted into 1.8 ml sterile eppendorf tubes and centrifuged for 10 minutes at 2600 rpm at 4° C. Plasma and buffy coat layers were removed (approximately 900 μl) and packed red blood cells (RBC) were then washed by the addition of 900 μl of sterile, ice cold PBS. This washing procedure was repeated twice. Packed RBC were resuspended by the addition of 900 μl of ice-cold, sterile PBS (and termed RBC stock). RBC stocks were stored at 4° C. for a maximum of three days. All working suspensions of RBC were prepared fresh daily by diluting 200 μl of RBC stock into 10 ml of ice-cold, sterile PBS and 50 μl added to each well.
Stocks of AAPH were freshly prepared for individual experiments as follows. […] Turbidity of RBC suspensions were monitored using a Tecan microplate reader at 690 nm (37° C.) with gentle vortexing. Assays were performed in quadruplicate and readings were taken every 5 minutes over 5 hours. RBC lysis curves were constructed by plotting absorbance (mean of 4 readings) against time. Time to half-lysis was calculated by taking the highest absorbance reading (no lysis) and the lowest absorbance reading (maximum lysis). The sum of these two readings divided by two gave the absorbance at half-lysis. Simple regression analysis was used to calculate the time at which half-lysis absorbance occurred.

5-lipoxygenase (5-LO) = assay: Synthesis of LTB4 and its metabolites in calcium ionophore-stimulated neutrophils (HPLC); type: cell-based, human; conditions: for IC50: Neutrophil, human neutrophils, calcium ionophore, read-out: IC50 for the production of LTB4
Protocol: The pathway for LTB4 synthesis involves initial release of AA from phospholipids by a Ca-dependent PLA2. The free AA is then oxygenated at by 5-LO (requiring enzyme activation by FLAP) to generate an epoxide intermediate (LTA4). LTA4 is then converted to LTB4 by LTA4 hydrolase. LTB4 is metabolised (and deactivated) by a cytochrome P-(CYP) 450 […] to produce 20-hydroxy and 20-carboxy metabolites. These metabolites are also measured in the HPLC assay.
Neutrophils were isolated from citrated human venous blood to >90% purity by centrifugation through Ficoll, dextran sedimentation and lysis of erythrocytes (Boyum 1986). Cells were washed in HEPES buffered Hanks solution (HBHS) and then suspended at 4.5 million cells/mL in HBHS containing 0.1% BSA (HBHS+BSA).
Experiments had been carried out previously to optimise the stimulation of neutrophils by calcium ionophore. At 37° C., 900 μL of cell suspension (4 million cells) was incubated with 3′,7-dihydroxyisoflav-3-ene (or vehicle) in 10 μL DMSO for 5 min before addition of 100 μL of 25 ng/μL calcium ionophore (free acid form, Sigma) with 0.5% DMSO in HBHS containing 0.1% bovine serum albumin (HBHS+BSA). The cells were incubated for 10 min then pelleted by centrifugation at 1200× g at 4° C. for 5 min, and the cell free supernatant used to quantitate the levels of LTB4 and its metabolites.
To each 900 μL aliquot of the supernatant, 25 μL of 2.5 ng/μL prostaglandin B2 (PGB2) in ethanol was added as internal standard. The solution was acidified to […] with 2M formic acid and the mixture extracted with 2 mL ethyl acetate and vigorous vortexing. The organic layer was collected and dried under nitrogen in a glass vial before being reconstituted in 50 μL of the reconstitution solution (water:methanol:acetonitrile at 2:1:1).
Analysis was carried out using a HPLC system with a 125-4 LiChrospher®100 RP-18 (5 μm) column (Agilent Technologies) and a gradient system adapted from a published method (Mita et al. 1988) to separate LTB4, its oxidation products 20-hydroxy LTB4 (20-OH-LTB4) and 20-carboxy LTB4 (20-COOH-LTB4), as well as PGB2. At 1 ml/min flow rate, a combination of three different mobile phase solutions were used. UV absorbance was monitored at 270 nm, and LTB4 and its metabolites were quantitated by comparison of peak areas with that of internal standard and a standard curve prepared earlier.

Structure (SMILES)	VCAM-1 expression, Absorbance (VCAM-1; 10 μM)	VCAM-1 expression, Absorbance (VCAM-1; 30 μM)	Time taken to reach half-lysis, time (red blood cells (RBC))	20-COOH-LTB4, % of maximum release (5-lipoxygenase (5-LO); 0.1 μM)	20-OH-LTB4, % of maximum release (5-lipoxygenase (5-LO); 0.1 μM)	LTB4, % of maximum release (5-lipoxygenase (5-LO); 0.1 μM)	20-COOH-LTB4, % of maximum release (5-lipoxygenase (5-LO); 1 μM)	20-OH-LTB4, % of maximum release (5-lipoxygenase (5-LO); 1 μM)	LTB4, % of maximum release (5-lipoxygenase (5-LO); 1 μM)	20-COOH-LTB4, % of maximum release (5-lipoxygenase (5-LO); 10 μM)	20-OH-LTB4, % of maximum release (5-lipoxygenase (5-LO); 10 μM)	LTB4, % of maximum release (5-lipoxygenase (5-LO); 10 μM)	IC50 (5-lipoxygenase (5-LO))
CN(C)Cc1cc2c(cc1O)OCC(c1ccc(O)cc1)=C2 [Compound (1)]	0.164 ± 0.012	0.208 ± 0.008	154.6 min	82.0%	95.2%	94.3%	99.6%	77.7%	78.1%	0.0%	0.0%	0.0%	4.3 µM
O=C(O)C1CCCN1Cc1cc2c(cc1O)OCC(c1ccc(O)cc1)=C2 (centres unmarked) [Compound (3)]	0.161 ± 0.16	0.215 ± 0.018	88.6 min	114.9%	82.8%	93.6%	105.7%	99.0%	97.0%	145.2%	6.1%	0.0%	5.4 µM
